Experiment [1] has as its target human full-length recombinant HPK1 (Homo sapiens (Human), UniProt Q92918). Description: HPK1 biochemical enzyme assay, microfluidic mobility shift assay (MSA). The conditions noted are these: read-out: HPK1 Enzyme Assay_Ki. How it is done: HPK1 enzyme inhibition was measured using a microfluidic mobility shift assay (MSA). […] The reactions were conducted for 60 min at 37° C., stopped by the addition of 50 μL of 0.015 M EDTA, pH 8, and the extent of reactions (˜15-20% conversion with no inhibitor) was determined after electrophoretic separation of the fluorescently labeled peptide substrate and phosphorylated product on an LabChip EZ Reader II (PerkinElmer, Inc., Waltham, Mass.). […]

The test system of experiment [2] is phospho-SLP-76 (Ser376) in Jurkat cells. As to the kind of experiment: Phospho-SLP-76 (Ser376) Homogeneous Time Resolved Fluorescence (HTRF) assay in Jurkat cells. The format is cell-based. The conditions noted are these: Homo sapiens, read-out: SLP76 Assay_IC50. How it is done:
Jurkat cells were seeded at 90,000 cells/well in 90 uL of RPMI1640 growth medium containing 10% FBS and incubated at 37° C. with 5% CO2 overnight. The following day, compounds were serially diluted from a 10 mM top dose for an 11-point 3 fold dilution curve in DMSO. Compounds were intermediately diluted 1:100 into growth media prior to diluting 1:10 on cells for final concentration 10 μM to 0.1 nM in 0.1% DMSO. After 30 minutes pre-treatment with compounds, the cells were stimulated using 200 μg/mL of F(ab)2 complexed anti-CD3 (clone UCTH1) for 15 min at 37° C. with 5% CO2. Stimulation was stopped with ice cold PBS and cells were harvested by centrifugation before lysis in Cisbio lysis buffer (Cisbio, Bedford, Mass.). Lysates were transferred to white, low-volume plates containing anti-phospho-SLP-76-Cryptate plus anti-phospho-SLP-76-d2 HTRF antibodies and incubated overnight at room temperature protected from light according to the manufacturer's protocol (Cisbio, Bedford, Mass.). HTRF was measured on a Perkin Elmer Envision and IC50 values were calculated by concentration-response curve fitting utilizing four-parameter nonlinear regression analyses.

The mark [3] stands for this setting: mobility shift assay, 75 μM ATP, Morrison equation, tight-binding competitive inhibition.
The mark [4] stands for this setting: 30 min pre-treatment, anti-CD3 stimulation 15 min, HTRF.
The mark [5] stands for this setting: Phospho-SLP-76 (Ser376) HTRF, anti-CD3 stimulation.

Here are results for 21 molecules from patent publication US11142525B2 (Pfizer Inc., priority 2018, dated 2021).

Read-outs that look alike come from different tables or passages of the source.

Chain of human full-length recombinant HPK1 (Q92918 whole entry): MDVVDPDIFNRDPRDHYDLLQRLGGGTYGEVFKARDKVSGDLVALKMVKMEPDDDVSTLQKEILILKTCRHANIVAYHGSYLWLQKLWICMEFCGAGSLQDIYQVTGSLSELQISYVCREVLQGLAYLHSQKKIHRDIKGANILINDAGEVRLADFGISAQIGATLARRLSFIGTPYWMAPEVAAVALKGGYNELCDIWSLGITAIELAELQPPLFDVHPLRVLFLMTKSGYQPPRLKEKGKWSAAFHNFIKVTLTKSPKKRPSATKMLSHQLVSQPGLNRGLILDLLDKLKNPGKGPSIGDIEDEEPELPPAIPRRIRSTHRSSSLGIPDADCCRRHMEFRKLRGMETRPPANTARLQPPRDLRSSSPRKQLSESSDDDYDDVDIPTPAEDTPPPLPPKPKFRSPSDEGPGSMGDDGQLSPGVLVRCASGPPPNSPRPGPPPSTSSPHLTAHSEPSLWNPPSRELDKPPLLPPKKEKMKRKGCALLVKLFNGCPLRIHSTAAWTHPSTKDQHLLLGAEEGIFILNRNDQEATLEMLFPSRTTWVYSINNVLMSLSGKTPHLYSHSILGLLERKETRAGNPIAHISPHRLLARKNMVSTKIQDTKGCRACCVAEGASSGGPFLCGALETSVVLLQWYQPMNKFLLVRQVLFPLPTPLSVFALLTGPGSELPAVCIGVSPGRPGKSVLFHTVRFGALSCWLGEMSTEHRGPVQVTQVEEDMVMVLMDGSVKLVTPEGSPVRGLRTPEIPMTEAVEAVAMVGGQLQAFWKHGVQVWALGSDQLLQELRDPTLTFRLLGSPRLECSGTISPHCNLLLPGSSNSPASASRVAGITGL

On to `CC[C@H](CC(F)(F)F)n1cnnc1-c1cccc(N2Cc3c(cc(N(C)C)nc3CNC)C2=O)n1` (single isomer, unassigned) [Example 19, 6-(dimethylamino)-4-[(methylamino)methyl]-2-(6-{4-[(3ξ)-1,1,1-trifluoropentan-3-yl]-4H-1,2,4-triazol-3-yl}pyridin-2-yl)-2,3-dihydro-1H-pyrrolo[3,4-c]pyridin-1-one], for which, in experiment [1] (setting [3]), the Ki was 6.9 nM. Further, the IC50 in experiment [2] (setting [4]) was over 10000 nM.
Take `CC[C@H](CC(F)(F)F)n1cnnc1-c1cccc(N2Cc3c(cc(C(C)(C)C)nc3CNC)C2=O)n1` (single isomer, unassigned) [Example 51, 6-tert-butyl-4-[(methylamino)methyl]-2-(6-{4-[(3ξ)-1,1,1-trifluoropentan-3-yl]-4H-1,2,4-triazol-3-yl}pyridin-2-yl)-2,3-dihydro-1H-pyrrolo[3,4-c]pyridin-1-one]: in experiment [1] (setting [3]), the Ki turned out to be 7.1 nM. In experiment [2] (setting [4]), the IC50 was 1520 nM.
For the molecule `CC[C@@H](CC(F)(F)F)n1cnnc1-c1cccc(N2Cc3c(cc(N(C)C(C)C)nc3CNC)C2=O)n1` (single isomer, unassigned) [Example 72, 4-[(methylamino)methyl]-6-[methyl(propan-2-yl)amino]-2-(6-{4-[(3ξ)-1,1,1-trifluoropentan-3-yl]-4H-1,2,4-triazol-3-yl}pyridin-2-yl)-2,3-dihydro-1H-pyrrolo[3,4-c]pyridin-1-one], the Ki in experiment [1] (HPK1 mobility shift assay) is 4.48 nM. Moreover, the IC50 in experiment [2] (setting [5]) amounted to 1020 nM.
Taken in the same sequence, the figures for `CC[C@H](CC(F)(F)F)n1cnnc1-c1cccc(N2Cc3c(cc(N(C)C(C)C)nc3CNC)C2=O)n1` (single isomer, unassigned) [Example 73, 4-[(methylamino)methyl]-6-[methyl(propan-2-yl)amino]-2-(6-{4-[(3ξ)-1,1,1-trifluoropentan-3-yl]-4H-1,2,4-triazol-3-yl}pyridin-2-yl)-2,3-dihydro-1H-pyrrolo[3,4-c]pyridin-1-one] were 0.22 nM and 61 nM.
As for `CNCc1nc(N(C)C)cc2c1CN(c1cccc(-c3nncn3C(C)C)n1)C2=O` [Example 1, 6-(dimethylamino)-4-[(methylamino)methyl]-2-{6-[4-(propan-2-yl)-4H-1,2,4-triazol-3-yl]pyridin-2-yl}-2,3-dihydro-1H-pyrrolo[3,4-c]pyridin-1-one], the Ki in experiment [1] (setting [3]) was determined as 0.15 nM. Besides, the IC50 in experiment [2] (setting [4]) is 112 nM.
Taken in the same sequence, the figures for `CNCc1nc(N2CCC2)cc2c1CN(c1cccc(-c3nncn3C(C)C)n1)C2=O` [Example 2, 6-(azetidin-1-yl)-4-[(methylamino)methyl]-2-{6-[4-(propan-2-yl)-4H-1,2,4-triazol-3-yl]pyridin-2-yl}-2,3-dihydro-1H-pyrrolo[3,4-c]pyridin-1-one] were 0.28 nM and 86 nM.
Taken in the same sequence, the figures for `CCN(CC)c1cc2c(c(CNC)n1)CN(c1cccc(-c3nncn3C(C)C)n1)C2=O` [Example 4, 6-(diethylamino)-4-[(methylamino)methyl]-2-{6-[4-(propan-2-yl)-4H-1,2,4-triazol-3-yl]pyridin-2-yl}-2,3-dihydro-1H-pyrrolo[3,4-c]pyridin-1-one] were 0.39 nM and 106 nM.
Consider `CNCc1nc(C2CC2)cc2c1CN(c1cccc(-c3nncn3C(C)C)n1)C2=O` [Example 5, 6-cyclopropyl-4-[(methylamino)methyl]-2-{6-[4-(propan-2-yl)-4H-1,2,4-triazol-3-yl]pyridin-2-yl}-2,3-dihydro-1H-pyrrolo[3,4-c]pyridin-1-one], for which the Ki in experiment [1] (setting [3]) worked out at 0.39 nM. Also, the IC50 in experiment [2] (setting [4]) worked out at 186 nM.
Taken in the same sequence, the figures for `CNCc1nc(N(C)C(C)C)cc2c1CN(c1cccc(-c3nncn3C(C)C)n1)C2=O` [Example 6, 4-[(methylamino)methyl]-6-[methyl(propan-2-yl)amino]-2-{6-[4-(propan-2-yl)-4H-1,2,4-triazol-3-yl]pyridin-2-yl}-2,3-dihydro-1H-pyrrolo[3,4-c]pyridin-1-one] were 0.13 nM and 39 nM.
Turning to `CNCc1nc(C2(C)CC2)cc2c1CN(c1cccc(-c3nncn3C(C)C)n1)C2=O` [Example 7, 4-[(methylamino)methyl]-6-(1-methylcyclopropyl)-2-{6-[4-(propan-2-yl)-4H-1,2,4-triazol-3-yl]pyridin-2-yl}-2,3-dihydro-1H-pyrrolo[3,4-c]pyridin-1-one], in experiment [1] (setting [3]), the Ki amounted to 1.46 nM. Moreover, the IC50 in experiment [2] (setting [4]) was found to be 730 nM.
Taken in the same sequence, the figures for `CNCc1nc(N2[C@H](C)CC[C@H]2C)cc2c1CN(c1cccc(-c3nncn3C(C)C)n1)C2=O` [Example 8, 6-[(2R,5R)-2,5-dimethylpyrrolidin-1-yl]-4-[(methylamino)methyl]-2-{6-[4-(propan-2-yl)-4H-1,2,4-triazol-3-yl]pyridin-2-yl}-2,3-dihydro-1H-pyrrolo[3,4-c]pyridin-1-one] were 0.25 nM and 89 nM.
Taken in the same sequence, the figures for `CCN(CC)c1cc2c(c(CNC)n1)CN(c1cccc(-c3nncn3CC)n1)C2=O` [Example 9, 6-(diethylamino)-2-[6-(4-ethyl-4H-1,2,4-triazol-3-yl)pyridin-2-yl]-4-[(methylamino)methyl]-2,3-dihydro-1H-pyrrolo[3,4-c]pyridin-1-one] were 0.27 nM and 88 nM.
Turning to `CNCc1nc(N(C)C)cc2c1CN(c1cccc(N3C(=O)OC[C@@H]3C)n1)C2=O` [Example 10, 6-(dimethylamino)-4-[(methylamino)methyl]-2-{6-[(4S)-4-methyl-2-oxo-1,3-oxazolidin-3-yl]pyridin-2-yl}-2,3-dihydro-1H-pyrrolo[3,4-c]pyridin-1-one], the Ki in experiment [1] (setting [3]) worked out at 0.26 nM. Also, the IC50 in experiment [2] (setting [4]) turned out to be 97.6 nM.
Turning to `CC(C)c1[nH]ncc1-c1cccc(N2Cc3c(cc(N(C)C)nc3CN)C2=O)n1` [Example 11, 4-(aminomethyl)-6-(dimethylamino)-2-{6-[5-(propan-2-yl)-1H-pyrazol-4-yl]pyridin-2-yl}-2,3-dihydro-1H-pyrrolo[3,4-c]pyridin-1-one], the Ki in experiment [1] (setting [3]) came out at 0.09 nM. In addition, the IC50 in experiment [2] (setting [4]) came out at 159 nM.
Taken in the same sequence, the figures for `CC(C)n1cnnc1-c1cccc(N2Cc3c(cc(N(C)C)nc3CN)C2=O)n1` [Example 12, 4-(aminomethyl)-6-(dimethylamino)-2-{6-[4-(propan-2-yl)-4H-1,2,4-triazol-3-yl]pyridin-2-yl}-2,3-dihydro-1H-pyrrolo[3,4-c]pyridin-1-one] were 0.2 nM and 155 nM.
Taken in the same sequence, the figures for `C[C@@H](CC(F)(F)F)n1cnnc1-c1cccc(N2Cc3c(cc(N(C)C)nc3CN)C2=O)n1` [Example 13, 4-(aminomethyl)-6-(dimethylamino)-2-(6-{4-[(2S)-4,4,4-trifluorobutan-2-yl]-4H-1,2,4-triazol-3-yl}pyridin-2-yl)-2,3-dihydro-1H-pyrrolo[3,4-c]pyridin-1-one] were under 0.08 nM and 85 nM.
Taken in the same sequence, the figures for `CC[C@H](C)n1cnnc1-c1cccc(N2Cc3c(cc(N(C)C)nc3CNC)C2=O)n1` [Example 14, 2-(6-{4-[(2S)-butan-2-yl]-4H-1,2,4-triazol-3-yl}pyridin-2-yl)-6-(dimethylamino)-4-[(methylamino)methyl]-2,3-dihydro-1H-pyrrolo[3,4-c]pyridin-1-one] were 0.17 nM and 102 nM.
For the molecule `CN(C)c1cc2c(c(CN)n1)CN(c1cccc(-c3nncn3CC3CC3)n1)C2=O` [Example 16, 4-(aminomethyl)-2-{6-[4-(cyclopropylmethyl)-4H-1,2,4-triazol-3-yl]pyridin-2-yl}-6-(dimethylamino)-2,3-dihydro-1H-pyrrolo[3,4-c]pyridin-1-one], in experiment [1] (setting [3]), the Ki stood at 0.56 nM. Also, the IC50 in experiment [2] (setting [4]) is 358 nM.
On to `CNCc1nc(N(C)C)cc2c1CN(c1cccc(-c3nncn3[C@@H](C)CC(F)(F)F)n1)C2=O` [Example 17, 6-(dimethylamino)-4-[(methylamino)methyl]-2-(6-{4-[(2S)-4,4,4-trifluorobutan-2-yl]-4H-1,2,4-triazol-3-yl}pyridin-2-yl)-2,3-dihydro-1H-pyrrolo[3,4-c]pyridin-1-one], for which, in experiment [1] (setting [3]), the Ki was under 0.05 nM. Moreover, in experiment [2] (setting [4]), the IC50 was 70 nM.
As to `CCn1cnnc1-c1cccc(N2Cc3c(cc(N(C)C)nc3CNC)C2=O)n1` [Example 20, 6-(dimethylamino)-2-[6-(4-ethyl-4H-1,2,4-triazol-3-yl)pyridin-2-yl]-4-[(methylamino)methyl]-2,3-dihydro-1H-pyrrolo[3,4-c]pyridin-1-one], the Ki in experiment [1] (setting [3]) was determined as 2.8 nM. The IC50 in experiment [2] (setting [4]) turned out to be 158 nM.
In the case of `CNCc1nc(N(C)C)cc2c1CN(c1cccc(-c3nncn3CC3CC3)n1)C2=O` [Example 21, 2-{6-[4-(cyclopropylmethyl)-4H-1,2,4-triazol-3-yl]pyridin-2-yl}-6-(dimethylamino)-4-[(methylamino)methyl]-2,3-dihydro-1H-pyrrolo[3,4-c]pyridin-1-one], the Ki in experiment [1] (setting [3]) was found to be 0.62 nM. Further, the IC50 in experiment [2] (setting [4]) was 245 nM.
